Activity calls are given as the source filed them.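 The calls were made as follows: active = compounds lowering the signal whose fitted AC50 is at most twice their top tested dose; inconclusive = flat fit with 30 to 70% inhibition, or poor fit; inactive = the rest.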

One assay addresses Drosophila melanogaster bursicon receptor (rickets, LGR2). As to the kind of experiment: inhibitors of bursicon-driven CRE reporter signaling – cell-based, HEK293, CRE-luciferase, luminescence, dry powder, dose response (AID 977612). To be noted: bursicon-stimulated, antagonist luminescence.
As for `C[C@H]1CCCCO[C@@H](CN(C)C(=O)Nc2ccc(F)cc2)[C@@H](C)CN([C@@H](C)CO)C(=O)c2cc(NC(=O)C3CCCCC3)ccc2O1`, the AC50 (usually the concentration giving half of the maximal activity seen) is 11.4 µM. `C[C@@H]1CCCCO[C@@H](CN(C)C(=O)Nc2cccc3ccccc23)[C@@H](C)CN([C@@H](C)CO)C(=O)c2cc(NC(=O)C3CCCCC3)ccc2O1`: the AC50 was > 70 µM (inactive). On the same count and under the same terms, with `COc1ccc(S(=O)(=O)N(C)C[C@@H]2OCCCC[C@H](C)Oc3ccc(NS(=O)(=O)c4ccc(Cl)cc4)cc3C(=O)N([C@@H](C)CO)C[C@@H]2C)cc1` the figure was 19.1 µM; with `C[C@H](CO)N1C[C@H](C)[C@H](CN(C)C(=O)Nc2ccccc2)OCCCC[C@H](C)Oc2ccc(NC(=O)CCC(F)(F)F)cc2C1=O`, 36.3 µM; with `C[C@H](CO)N1C[C@H](C)[C@H](CN(C)C(=O)Nc2ccc3c(c2)OCO3)OCCCC[C@H](C)Oc2ccc(NC(=O)C3CCCCC3)cc2C1=O`, 10.5 µM. Regarding `C[C@@H]1CN([C@@H](C)CO)C(=O)c2cc(NC(=O)C3CCCCC3)ccc2O[C@@H](C)CCCCO[C@H]1CN(C)C(=O)Nc1cccc2ccccc12`, the AC50 was > 70 µM (inactive). The same measure, in the same setting: for `C[C@H]1CCCCO[C@@H](CN(C)C(=O)Nc2ccc(C(F)(F)F)cc2)[C@@H](C)CN([C@@H](C)CO)C(=O)c2cc(NC(=O)CCC(F)(F)F)ccc2O1` the value was 31.7 µM; for `C[C@@H]1CN([C@H](C)CO)C(=O)c2cc(NC(=O)C3CCCCC3)ccc2O[C@@H](C)CCCCO[C@H]1CN(C)C(=O)Nc1cccc2ccccc12`, > 70 µM (inactive). On to `C[C@@H]1CN([C@H](C)CO)C(=O)c2cc(NC(=O)C3CCCCC3)ccc2O[C@@H](C)CCCCO[C@@H]1CN(C)C(=O)Nc1cccc2ccccc12`, for which the AC50 was > 70 µM (inactive). Same read-out and setting: with `C[C@H](CO)N1C[C@H](C)[C@H](CN(C)C(=O)Nc2cccc3ccccc23)OCCCC[C@H](C)Oc2ccc(NC(=O)NC3CCCCC3)cc2C1=O` the figure was 23.2 µM. Regarding `C[C@H](CO)N1C[C@H](C)[C@H](CN(C)C(=O)Nc2ccc(F)cc2)OCCCC[C@H](C)Oc2ccc(NC(=O)NC3CCCCC3)cc2C1=O`, the AC50 was 21.4 µM. Still for that read-out and setting: with `COc1ccc(NC(=O)N(C)C[C@@H]2OCCCC[C@H](C)Oc3ccc(NC(=O)NC4CCCCC4)cc3C(=O)N([C@H](C)CO)C[C@@H]2C)cc1` the figure was 30.8 µM.

Consider `C[C@H](CO)N1C[C@H](C)[C@H](CN(C)C(=O)Nc2ccc(C(F)(F)F)cc2)OCCCC[C@H](C)Oc2ccc(NC(=O)CCC(F)(F)F)cc2C1=O`, for which the AC50 was 15 µM. On the same count and under the same terms, with `C[C@H](CO)N1C[C@H](C)[C@H](CN(C)C(=O)Nc2ccc(F)cc2)OCCCC[C@H](C)Oc2ccc(NC(=O)C3CCCCC3)cc2C1=O` the figure was 6.2 µM; with `C[C@H](CO)N1C[C@H](C)[C@H](CN(C)C(=O)Nc2ccccc2)OCCCC[C@H](C)Oc2ccc(NC(=O)C3CCCCC3)cc2C1=O`, 12.6 µM; with `COc1ccc(NC(=O)N(C)C[C@@H]2OCCCC[C@H](C)Oc3ccc(NC(=O)C4CCCCC4)cc3C(=O)N([C@H](C)CO)C[C@@H]2C)cc1`, 10.1 µM. On the same count and under the same terms, for `C[C@H](CO)N1C[C@H](C)[C@H](CN(C)C(=O)Nc2cccc3ccccc23)OCCCC[C@H](C)Oc2ccc(NC(=O)c3ccccc3)cc2C1=O` the value was 22.8 µM; for `C[C@H](CO)N1C[C@H](C)[C@H](CN(C)C(=O)Nc2ccc3c(c2)OCO3)OCCCC[C@H](C)Oc2ccc(NC(=O)NC3CCCCC3)cc2C1=O`, 31 µM. On the same count and under the same terms, for `C[C@H](CO)N1C[C@H](C)[C@H](CN(C)C(=O)Nc2cccc3ccccc23)OCCCC[C@H](C)Oc2ccc(NC(=O)CCC(F)(F)F)cc2C1=O` the value was 13.1 µM; for `C[C@H](CO)N1C[C@H](C)[C@H](CN(C)C(=O)Nc2ccccc2)OCCCC[C@H](C)Oc2ccc(NC(=O)NC3CCCCC3)cc2C1=O`, 20.9 µM; for `C[C@@H]1CCCCO[C@H](CN(C)C(=O)Nc2cccc3ccccc23)[C@@H](C)CN([C@@H](C)CO)C(=O)c2cc(NC(=O)C3CCCCC3)ccc2O1`, > 70 µM (inactive).

The same assay, now with this note: bursicon-stimulated, antagonist luminescence, at 35 µM (top of the series).
As to `C[C@H]1CCCCO[C@H](CN(C)C(=O)Nc2cccc3ccccc23)[C@@H](C)CN([C@@H](C)CO)C(=O)c2cc(NC(=O)C3CCCCC3)ccc2O1`, the “activity change, negative = inhibition” value was “inactive”. Still for that read-out and setting: for `C[C@H](CO)N1C[C@H](C)[C@@H](CN(C)C(=O)Nc2cccc3ccccc23)OCCCC[C@H](C)Oc2ccc(NC(=O)C3CCCCC3)cc2C1=O` the value was “inactive”. Take `C[C@H](CO)N1C[C@H](C)[C@H](CN(C)C(=O)Nc2ccc(F)cc2)OCCCC[C@H](C)Oc2ccc(NC(=O)C3CC3)cc2C1=O`: the “activity change, negative = inhibition” value was “inactive”. The same measure, in the same setting: for `C[C@@H]1CCCCO[C@H](CN(C)C(=O)Nc2cccc3ccccc23)[C@@H](C)CN([C@H](C)CO)C(=O)c2cc(NC(=O)C3CCCCC3)ccc2O1` the value was “inactive”; for `C[C@@H]1CCCCO[C@H](CN(C)C(=O)Nc2cccc3ccccc23)[C@H](C)CN([C@@H](C)CO)C(=O)c2cc(NC(=O)C3CCCCC3)ccc2O1`, “inactive”; for `C[C@H]1CCCCO[C@@H](CN(C)S(=O)(=O)c2ccc(Cl)cc2)[C@@H](C)CN([C@@H](C)CO)C(=O)c2cc(NC(=O)NC3CCCCC3)ccc2O1`, “inactive”. On the same count and under the same terms, for `C[C@@H]1CCCCO[C@@H](CN(C)C(=O)Nc2cccc3ccccc23)[C@@H](C)CN([C@H](C)CO)C(=O)c2cc(NC(=O)C3CCCCC3)ccc2O1` the value was “inactive”; for `CC(=O)Nc1ccc2c(c1)C(=O)N([C@H](C)CO)C[C@H](C)[C@H](CN(C)C(=O)Nc1ccc(F)cc1)OCCCC[C@H](C)O2`, “inactive”; for `C[C@@H]1CCCCO[C@@H](CN(C)C(=O)Nc2cccc3ccccc23)[C@H](C)CN([C@H](C)CO)C(=O)c2cc(NC(=O)C3CCCCC3)ccc2O1`, “inactive”. Regarding `C[C@@H]1CN([C@@H](C)CO)C(=O)c2cc(NC(=O)C3CCCCC3)ccc2O[C@@H](C)CCCCO[C@@H]1CN(C)C(=O)Nc1cccc2ccccc12`, the “activity change, negative = inhibition” value is “inactive”. For the molecule `C[C@H](CO)N1C[C@H](C)[C@H](CN(C)C(=O)Nc2ccc(F)cc2)OCCCC[C@H](C)Oc2ccc(NC(=O)C3CCOCC3)cc2C1=O`, the “activity change, negative = inhibition” value was “inactive”. With `C[C@@H]1CCCCO[C@H](CN(C)C(=O)Nc2cccc3ccccc23)[C@H](C)CN([C@H](C)CO)C(=O)c2cc(NC(=O)C3CCCCC3)ccc2O1`, the “activity change, negative = inhibition” value is “inactive”. Same read-out and setting: with `CC(C)(C)c1ccc(-c2nc(-c3ccncc3)no2)cc1` the entry was “inactive”; with `C[C@@H]1CCCCO[C@@H](CN(C)C(=O)Nc2cccc3ccccc23)[C@H](C)CN([C@@H](C)CO)C(=O)c2cc(NC(=O)C3CCCCC3)ccc2O1`, “inactive”.

For the origin of these results see PubChem BioAssay AID977612 (Broad Institute, 2014).
